Measured values: article PMC9598407, “Identification of Staphylococcus aureus Penicillin Binding Protein 4 (PBP4) Inhibitors” (Antibiotics, 2022)
Converted amounts (≈) assume the structure as drawn.

What was measured:
S. aureus USA300 = experiment: Minimum inhibitory concentration (MIC) testing, strain USA300; type: cell-based, Staphylococcus aureus
Experimental: (§1) The approach used was to initially search for compounds that reverse the antibiotic resistance profile of wild type cells to that of a pbp4 mutant. To define screening conditions three strains were employed, a wild type USA300 MRSA strain, an isogenic pbp4 deletion strain, and a complemented strain harboring a plasmid wildtype pbp4 copy. The antibiotic susceptibility profile of each strain was measured to determine the magnitude with which PBP4 affects resistance to various antibiotics (Table 1). […]. We anticipated that the greater dynamic range of the latter could provide a means to reliably screen for agents that inhibit PBP4 function. […].
(§2) S. aureus strain USA300 is a predominant cause of U.S. community-associated MRSA infections, whereas strain COL is a commonly studied hospital-associated MRSA strain. The S. aureus USA300 pbp4-null strain (USA300Δpbp4) and PBP4 complementation strain (USA300∆pbp4 pPBP4) have been previously described. Strain COLn is a laboratory derived tetracycline susceptible derivative of COL, whereas COLnex is a methicillin susceptible COLn derivative that has been cured of SCCmec thereby removing the mecA, which encodes PBP2a, and has been previously described. Strain CRB is a well-studied MRSA COLnex derivative that contains two amino acid substitutions (E183A and F241R) near the PBP4 active site and a 36-bp duplication 290-bp upstream of the pbp4 open reading frame leading to 20–40-fold overexpression of the gene. All strains were grown in Mueller Hinton (MH) broth at 37 °C, as indicated. Penicillin, streptomycin, ciprofloxacin, mupirocin, meropenem, and mitomycin C were purchased from Fisher Scientific (Waltham, MA, USA), whereas ceftobiprole was obtained from MedChemExpress LLC (Monmouth Junction, NJ, USA). The 30,000-member […]-EXP small molecule chemical library (Blocks 3–5) used in these studies was purchased from ChemBridge Corporation (San Diego, CA, USA).

S. aureus USA300∆pbp4 = experiment: MIC testing, strain USA300∆pbp4; type: cell-based, Staphylococcus aureus; conditions: Staphylococcus aureus, USA300, read-out: Minimum inhibitory concentration
Experimental: as §1, §2

[1] = system: S. aureus USA300∆pbp4 pPBP4; experiment: microbe, parasite or virus in culture; type: cell-based; conditions: Staphylococcus aureus, USA300, read-out: Minimum inhibitory concentration
S. aureus COLnex = experiment: MIC testing, strain COLnex; type: cell-based; conditions: Staphylococcus aureus, read-out: Minimum inhibitory concentration
Experimental: (§3) To further evaluate their potential PBP4 inhibitor activity, prioritized compounds were tested for their ability to reverse PBP4 mediated antibiotic resistance in another S. aureus background using three isogenic strains that became available during our study (generous gift from Dr. S. Chatterjee; University of Maryland). These strains included: (1) COLnex, which is a methicillin susceptible strain, (2) CRB, a methicillin/ceftobiprole-resistant strain of COLnex that overproduces PBP4, and (3) CRB∆pbp4, a methicillin susceptible strain of CRB lacking the pbp4 gene.
as §2

S. aureus CRB = experiment: MIC testing, strain CRB (PBP4 overproducer); type: cell-based, Staphylococcus aureus
Experimental: as §3, §2

S. aureus CRB∆pbp4 = experiment: MIC testing, strain CRB∆pbp4; type: cell-based; conditions: Staphylococcus aureus, read-out: Minimum inhibitory concentration
Experimental: as §3, §2

[2] = target: recombinant Bacillus subtilis PBP4 (Bacillus subtilis, UniProt P40750); experiment: BOCILLIN FL fluorescence polarization displacement assay, PBP4; type: binding; conditions: for Effect of preincubation on BOCILLIN FL binding to PBP4 (fluorescence polarization): 50 µM, 1 µM PBP4
Chain of recombinant Bacillus subtilis PBP4 (P40750 22-624): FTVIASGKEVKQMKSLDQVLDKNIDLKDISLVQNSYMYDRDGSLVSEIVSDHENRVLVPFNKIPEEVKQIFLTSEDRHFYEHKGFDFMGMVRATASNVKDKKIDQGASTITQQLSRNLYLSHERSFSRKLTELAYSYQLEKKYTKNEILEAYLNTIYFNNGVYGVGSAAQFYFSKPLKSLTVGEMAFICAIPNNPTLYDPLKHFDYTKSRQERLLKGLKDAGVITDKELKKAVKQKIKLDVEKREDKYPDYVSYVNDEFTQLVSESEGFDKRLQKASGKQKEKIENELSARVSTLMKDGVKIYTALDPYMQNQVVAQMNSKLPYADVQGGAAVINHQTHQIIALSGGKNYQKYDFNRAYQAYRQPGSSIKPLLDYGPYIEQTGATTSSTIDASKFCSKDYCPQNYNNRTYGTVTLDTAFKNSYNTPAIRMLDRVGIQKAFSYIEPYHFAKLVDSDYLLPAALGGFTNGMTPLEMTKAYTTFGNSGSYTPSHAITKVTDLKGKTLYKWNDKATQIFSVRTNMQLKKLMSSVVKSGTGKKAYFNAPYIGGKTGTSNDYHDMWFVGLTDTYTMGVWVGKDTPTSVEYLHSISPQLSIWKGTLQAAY
Experimental: To more directly evaluate whether 9314848 is likely to affect PBP4 function, the compound’s ability to bind recombinant PBP4 was measured using BOCILLIN FL fluorescence polarization displacement assays. The premise for the assay is that the fluorescence polarization of the fluorescently labeled β-lactam, penicillin V (BOCILLIN FL), will increase upon binding to its cognate target (i.e., PBP4). Further, compounds that bind PBP4 and inhibit its function would impede BOCILLIN FL binding thereby allowing us to assess the protein binding affinity of 9314848 using a simple fluorescence reduction assay.
To determine whether the assay is amenable to measuring the binding properties of a compound that is known to bind PBP4 vs. a compound that is not expected to bind the protein we performed fluorescence polarization assays in which PBP4 was preincubated with either the β-lactam ampicillin, or the aminoglycoside kanamycin.
A dose response study was conducted (Figure 4B) in which PBP4 was preincubated with 0, 3.125, 6.25, 12.5, 25, or 50 µM of ampicillin, kanamycin, or 9314848.
First, fluorescence polarization assays were performed as previously described, but with minor modifications. Briefly, the indicated amount of the putative PBP4 inhibitor or control antibiotic was incubated with 1 µM recombinant B. subtilis PBP4 or S. aureus PBP2a in potassium phosphate buffer (40 mM K2HPO4 and 10 mM KH2PO4) for 1 h in black 96-well microtiter plates (Corning Life Sciences, Corning, NY, USA). Following incubation, 1 µM (final concentration) BOCILLIN FL penicillin was added, and the mixture was incubated for 30 min. BOCILLIN FL fluorescence polarization was measured at (495 nm excitation and 545 nm emission) in a SpectraMax M5 multimode plate reader (Molecular Devices, San Jose, CA, USA). […] The resulting data were plotted as percentage BOCILLIN FL binding inhibition = (T/U) × 100; T = FL polarization of ((PBP4+ BOCILLIN FL) − (PBP4+ BOCILLIN FL + inhibitor compound)), U = FL polarization of ((PBP4 + BOCILLIN FL) − (BOCILLIN FL)). Second, gel electrophoresis and fluorescence detection was used to measure BOCILLIN FL labeling of PBP4 treated with the known PBP4 inhibitor cefoxitin (positive control), kanamycin (negative control) or 9314848 (test compound), as previously described but with minor modifications. Briefly, 1 µM of recombinant PBP4 was mixed with 0, 50, 500, 2000, or 5000 µM 9314848 or control antibiotic in 50 mM phosphate buffer (pH 7.4) and incubated at 37 °C for 30 min. Next 40 μM of BOCILLIN FL was added to the reaction mixture and incubated for an additional 30 min at 37 °C. Reactions were stopped by adding 5× SDS-PAGE gel loading dye, heated at 100 °C for 3 min and separated by electrophoresis in 12% SDS-PAGE (2 h, 120 Volts). BOCILLIN FL labeled PBP4 was imaged at λ = 365 nm using a BioRad Gel Doc EZ Imaging system and the gel was then subsequently stained with Bio-safe Coomassie Brilliant Blue stain (BioRad, Hercules, CA, USA) to measure the amount of protein present in each reaction condition and analyzed using NIH-ImageJ software. The percent BOCILLIN FL binding was calculated by first normalizing the protein present in each reaction condition to that of untreated control and subsequently applying each reaction’s protein normalization factor to each reaction’s fluorescent signal. The percentage BOCILLIN FL binding inhibition was then calculated as the normalized band intensity of antibiotic/compound treated sample as compared to the control sample (PBP4 + BOCILLIN FL in the absence of compound).

recombinant PBP4 = recombinant PBP4 (Bacillus subtilis, UniProt P40750); experiment: Gel electrophoresis BOCILLIN FL labeling of PBP4; type: binding; conditions: for Effect of preincubation on PBP4 BOCILLIN FL labeling (gel-based): 50-5000 µM, kanamycin 2000 µM or 5000 µM; for PBP4 BOCILLIN FL binding inhibition (gel-based) at low concentration: concentrations below 50 µM
Chain of recombinant PBP4 (P40750 22-624): as above
Experimental: A second, yet lower resolution, approach was used to verify the impact of 9314848 on PBP4 substrate binding in which the protein was preincubated with compound or control antibiotics then labeled with the BOCILLIN FL and resulting fluorescent labeled protein was visualized following gel electrophoresis.
The ability of putative PBP4 inhibitors to impact the active site of recombinant PBP4 was assessed using two previously established BOCILLIN-FL Penicillin (Penicillin V conjugated to BODIPY fluorescent dye) binding assays. First, fluorescence polarization assays were performed as previously described, but with minor modifications. Briefly, the indicated amount of the putative PBP4 inhibitor or control antibiotic was incubated with 1 µM recombinant B. subtilis PBP4 or S. aureus PBP2a in potassium phosphate buffer (40 mM K2HPO4 and 10 mM KH2PO4) for 1 h in black 96-well microtiter plates (Corning Life Sciences, Corning, NY, USA). Following incubation, 1 µM (final concentration) BOCILLIN FL penicillin was added, and the mixture was incubated for 30 min. BOCILLIN FL fluorescence polarization was measured at (495 nm excitation and 545 nm emission) in a SpectraMax M5 multimode plate reader (Molecular Devices, San Jose, CA, USA). All assays were repeated at least 8 times, averaged, and values falling outside of 2 standard deviations were considered outliers. The resulting data were plotted as percentage BOCILLIN FL binding inhibition = (T/U) × 100; T = FL polarization of ((PBP4+ BOCILLIN FL) − (PBP4+ BOCILLIN FL + inhibitor compound)), U = FL polarization of ((PBP4 + BOCILLIN FL) − (BOCILLIN FL)). Second, gel electrophoresis and fluorescence detection was used to measure BOCILLIN FL labeling of PBP4 treated with the known PBP4 inhibitor cefoxitin (positive control), kanamycin (negative control) or 9314848 (test compound), as previously described but with minor modifications. Briefly, 1 µM of recombinant PBP4 was mixed with 0, 50, 500, 2000, or 5000 µM 9314848 or control antibiotic in 50 mM phosphate buffer (pH 7.4) and incubated at 37 °C for 30 min. Next 40 μM of BOCILLIN FL was added to the reaction mixture and incubated for an additional 30 min at 37 °C. Reactions were stopped by adding 5× SDS-PAGE gel loading dye, heated at 100 °C for 3 min and separated by electrophoresis in 12% SDS-PAGE (2 h, 120 Volts). BOCILLIN FL labeled PBP4 was imaged at λ = 365 nm using a BioRad Gel Doc EZ Imaging system and the gel was then subsequently stained with Bio-safe Coomassie Brilliant Blue stain (BioRad, Hercules, CA, USA) to measure the amount of protein present in each reaction condition and analyzed using NIH-ImageJ software. The percent BOCILLIN FL binding was calculated by first normalizing the protein present in each reaction condition to that of untreated control and subsequently applying each reaction’s protein normalization factor to each reaction’s fluorescent signal. The percentage BOCILLIN FL binding inhibition was then calculated as the normalized band intensity of antibiotic/compound treated sample as compared to the control sample (PBP4 + BOCILLIN FL in the absence of compound).

Molecule `NC[C@H]1O[C@H](O[C@H]2[C@H](O)[C@@H](O[C@H]3O[C@H](CO)[C@@H](O)[C@H](N)[C@H]3O)[C@H](N)C[C@@H]2N)[C@H](N)C[C@@H]1O` [TOB, tobramycin] has an MIC (S. aureus USA300; Staphylococcus aureus, USA300, read-out: Minimum inhibitory concentration) of 1 µg/mL (≈ 2.14 µM), an MIC (S. aureus USA300∆pbp4) of 1 µg/mL (≈ 2.14 µM) and an MIC [1] of 1 µg/mL (≈ 2.14 µM). It also gave an MIC (S. aureus COLnex) of 0.06 µg/mL (≈ 0.128 µM), an MIC (S. aureus CRB; Staphylococcus aureus, read-out: Minimum inhibitory concentration, strain CRB) of 0.06 µg/mL (≈ 0.128 µM) and an MIC (S. aureus CRB∆pbp4) of 0.06 µg/mL (≈ 0.128 µM).
With `NC[C@H]1O[C@H](O[C@H]2[C@H](O)[C@@H](O[C@H]3O[C@H](CO)[C@@H](O)[C@H](N)[C@H]3O)[C@H](N)C[C@@H]2N)[C@H](O)[C@@H](O)[C@@H]1O` [kanamycin] the “PBP4 BOCILLIN FL binding inhibition, dose response” value ([2]; 0, 3.125, 6.25, 12.5, 25, or 50 µM) was “no inhibitory effect”, the “Effect of preincubation on BOCILLIN FL binding to PBP4 (fluorescence polarization)” value [2] was “had no impact on BOCILLIN FL binding” and the “Effect of preincubation on PBP4 BOCILLIN FL labeling (gel-based)” value (from here on “Effect of preincubation … (gel-based)”) (recombinant PBP4) was “did not significantly impact”.
colistin was tested, and the Minimum inhibitory concentration (S. aureus USA300; strain USA300) was 128 µg/mL and the Minimum inhibitory concentration (S. aureus CRB; strain CRB) was 128 µg/mL.
With `CO[C@@]1(NC(=O)Cc2cccs2)C(=O)N2C(C(=O)O)=C(COC(N)=O)CS[C@@H]21` [cefoxitin] the “Effect of preincubation … (gel-based)” value (recombinant PBP4) was “reduced the protein’s ability to bind the fluorescent substrate” and the “PBP4 BOCILLIN FL binding inhibition (gel-based) at low concentration” value (recombinant PBP4) was “did not reproducibly demonstrate BOCILLIN FL binding inhibition”.
With `CC1(C)S[C@@H]2[C@H](NC(=O)[C@H](N)c3ccccc3)C(=O)N2[C@H]1C(=O)O` [ampicillin] the “Effect of preincubation on BOCILLIN FL binding to PBP4 (fluorescence polarization)” value [2] was “limited BOCILLIN FL binding”, the “Effect of preincubation … (gel-based)” value (recombinant PBP4) was “reduced the protein’s ability to bind the fluorescent substrate” and the “PBP4 BOCILLIN FL binding inhibition (gel-based) at low concentration” value (recombinant PBP4) was “did not reproducibly demonstrate BOCILLIN FL binding inhibition”.
